In US20080085861A1, “GAS1 POLYPEPTIDES” (priority 1999, published 2008):
Entries after “also recorded” stand apart in the source; their conditions may differ.

Experiments:
Gas1 expression = Gas1 expression in brain after intraperitoneal kainic acid (Northern blot); assay type: in vivo, rat; conditions: 10 mg/kg intraperitoneal; hippocampus and olfactory cortex
Procedure: Already detectable induced Gas1 mRNA levels after kainic acid appear 6 hours after the beginning of treatment and were maintained for at least 10 days. In order to reveal Gas1 induction and to confirm neurone localization thereof in situ hybridization after administering kainic acid was performed. […] Similar results were observed after provoking an experimental ischemic process in gerbil brain by transient occlusion of both carotids, giving rise to rapid degeneration of a numerous population of pyramidal neurons of the CA1 layer of the hippocampus. It was observed that this massive neuron death was preceded by a significant rise of Gas1 mRNA and Gas1 protein levels (evaluated by immunocytochemistry) in those neurons. Likewise, it was also observed that neuron loss in all the cerebral cortex that is produced in rats in the perinatal period after exposure to ionizing radiation is preceded by high induction of Gas1 mRNA.

[1] = tested on: human neuroblastoma NB69 cells; test: Staurosporine-induced neuronal death in NB69 cells, viable cell count; assay type: cell-based; conditions: 200 nM staurosporine, viability 24 hr after exposure; 25 μM Ag1 in NB69 wt, or stable expression in NB69-Gas1 cells
Procedure: Columns 1 and 2. […] Columns 3 and 4. The viability was analyzed 24 hr after exposure to staurosporine (200 nM) in all the cases. Results are expressed as mean +/−SEM. Statistical analysis was performed by Student's t-test. *** denotes […], and other treatment groups were statistically non-significant (p<0.5).
Staurosporine-induced neuronal death was assayed in human neuroblastoma NB69 cells cultured in DMEM/HAM F12 medium supplemented with 10% fetal calf serum, 2 mM glutamine and 50 μg/ml gentamycin. Wild-type or stably transfected NB69 cells (2×10^4 cells/35 mm dish) were exposed to […] staurosporine (RBI). Phase-bright cells without signs of membrane or neurite degeneration were counted 24 hr later. Experiments were done in triplicate and repeated as least five times. Stably transfected NB69 cells that overexpress Gas1 in the […] orientation (NB69-Gas1) were prepared by the calcium phosphate precipitation method followed by two weeks of geneticin selection. Control cells were prepared in parallel by transfection with pCDNA3 vector alone (NB69-vector). Expression of the constructs in the cell clones were analyzed by northern blot analysis, and the clones having the highest expression were chosen for the experiments. Stable tranfectants were kept in the presence of 0.3 mg/ml of geneticin, which was removed before plating for the experiments.

[2] = tested on: cortico-hippocampal cultures; test: NMDA-induced neuronal death (excitotoxicity) in cortico-hippocampal cultures, viability by vital staining; assay type: cell-based, rat; set-up: survival: dose or concentration left out as unconfirmed
Procedure: The viability of mature cortico-hippocampal cultures was analyzed 24 hr after […] NMDA exposure. Pretreatment with the different antisense oligonucleotides at the indicated concentrations was done 24 hr before the exposure to NMDA. Results are expressed as mean +/−SEM. Statistical analysis was performed by Student's t-test. *** denotes […], and other treatment groups were statistically non-significant (p<0.5).
NMDA-induced excitotoxicity was analyzed in cortico-hippocampal cultures maintained for 12-14 DIV similar to those already described in Example 1. To apply the excitotoxic insult, the cultures were rinsed twice with Locke's solution without Mg2+ and exposed to […] NMDA (Sigma) for 5 min. in the same Locke's solution or to Locke's solution alone as control. NMDA was washed out, the Mg2+ concentration was restored by 2 changes of Locke's +Mg2+ solution, and the original medium was replaced. Phase-bright bipolar cells, taken to represent living neurons, were counted 24 hr after the NMDA exposure. Alternatively, the vital staining method (Jones and Senft, 1985 An improved method to determine cell viability by simultaneous staining with fluorescein diacetate-propidium iodide. J Histochem Cytochem 33:77-79) was used to assess the extent of neuronal death and the protection by antisense oligonucleotide treatments. Similar results were obtained using either method. […]

[3] = Channel formation of purified Gas1 protein in artificial bilayers; assay type: biochemical; conditions: purified protein expressed in bacteria (pTrcHis)
Excerpt: Initially, Gas1 expression has been related to the G0 phase of cell cycle arrest in rat fibroblasts deprived of serum (Del Sal et al., 1992). […] Up to now it had been described that Gas1 protein was a cell membrane protein and as of its amino acid sequence the presence of two transmembrane segments had been proposed and a hypothetical RGD domain that may interact with integrin, the only domain described that relates its structure to its arrest function of the cell cycle (Schneider et al.). The present inventors have succeeded in overexpressing the Gas1 protein by means of a prokaryotic vector (pTrcHis) in bacteria for subsequent purification in sufficient amounts to carry out protein studies. […] Aside from the already described location of this protein in the cell membrane we have located the presence of Gas1 in the perinuclear and mitochondrial membrane. It must be pointed out that Bcl-2 and Bax, proteins related to the […], are also located in the mitochondrial membrane and are capable of forming ionic channels. This common location of these proteins makes compatible a possible functional interaction of Gas1 with Bax type proapoptotic proteins and Bcl-2 and Bcl XL antiapoptotic proteins.

## C=C(C)[C@H]1CN[C@H](C(=O)O)[C@H]1CC(=O)O [kainic acid]
Gas1 expression
  induction of Gas1 expression: strong induction

## 5′-TCCTCATCCATCCAT-3′ (DNA, linkages s2 o10 s2 (s phosphorothioate, o phosphodiester), methylation of C not given here) [AG1, 15-mer Gas1 antisense oligonucleotide spanning the start site of translation, protected at each end by two phosphorothioate groups]
[1]
  effect on staurosporine-induced reduction in survival: prevents the reduction in survival; also recorded: total blocking
[2]; 25 μM Ag1, pretreatment 24 hr before 500 mM NMDA, viability 24 hr after exposure
  effect on NMDA-induced neuronal death: blocks NMDA-induced neuronal death
[2]; NMDA induced neuron death in primary neuron cultures, FIG. 2a
  survival: ~100%

B1: Gas1 protein: purified Gas1 protein overexpressed by a prokaryotic vector (pTrcHis) in bacteria (protein)
chain: LAHGRRLICWQALLQCQGEPECSYAYNQYAEACAPVLAQHGGGDAPGAAAAAFPASAASFSSRWRCPSHCISALIQLNHTRRGPALEDCDCAQDENCKSTKRAIEPCLPRTSGGGAGGPGAGGVMGCTEARRRCDRDSRCNLALSRYLTYCGKVFNGLRCTDECRTVIEDMLAMPKAALLNDCVCDGLERPICESVKENMARLCFGAELGNGPGSSGSDGGLDDYYDEDYDDEQRTGGAGGEQPLDDDDGVPHPPRPGSGAAASGGRGDLPYGPGRRS
[3]
  channel formation: capable of inserting in and forming cationic channels
